Values of other authors in patent US20110118243A1, “ANTI-INFLAMMATORY DRUG DELIVERY SYSTEM” (priority 2008, published 2011).

Details: in horses

## CCCCC1C(=O)N(c2ccccc2)N(c2ccccc2)C1=O [phenylbutazone, 4-butyl-diphenyl-3,5-pyrazoidinedione]
  Plasma half-life: 5 to 6 h
